Laboratory results taken from paper PMC5196235 (International Journal for Parasitology: Drugs and Drug …, 2016).
Where a name gives a salt, the structure may show the parent alone.

What was measured:
Asu-ACR-16 receptor [1] = target: T1, Asu-ACR-16 receptor (Ascaris suum, UniProt F1KYJ9); assay: Two-electrode voltage clamp of Asu-ACR-16 expressed in Xenopus oocytes; format: cell-based; details: for effect at high concentration (response left out of the Hill fit): 30 μM 5-methylnicotine, 100 μM 6-methylnicotine, 300 μM homonicotine, 100 μM (S, R)-anabasine; for Hill slope (nH): Asu-ACR-16 in Xenopus oocytes, Hill equation fit, mean ± S.E.M., N = 5; for Emax: read-out: maximum response (Imax)
T1 sequence (F1KYJ9 1-504): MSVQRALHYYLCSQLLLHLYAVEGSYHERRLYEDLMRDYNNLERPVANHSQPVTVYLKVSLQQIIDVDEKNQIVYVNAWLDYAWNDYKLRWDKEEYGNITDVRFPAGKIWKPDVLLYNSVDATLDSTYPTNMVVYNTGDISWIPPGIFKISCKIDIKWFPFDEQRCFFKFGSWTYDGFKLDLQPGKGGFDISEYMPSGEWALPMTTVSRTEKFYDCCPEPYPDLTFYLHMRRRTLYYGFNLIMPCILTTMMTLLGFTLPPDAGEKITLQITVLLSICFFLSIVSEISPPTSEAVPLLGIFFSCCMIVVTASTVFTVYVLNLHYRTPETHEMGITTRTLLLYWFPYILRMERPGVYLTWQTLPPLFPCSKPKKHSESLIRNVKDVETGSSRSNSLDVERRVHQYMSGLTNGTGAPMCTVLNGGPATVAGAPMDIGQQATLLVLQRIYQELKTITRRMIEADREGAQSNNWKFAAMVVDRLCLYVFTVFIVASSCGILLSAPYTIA

Asu-ACR-16 receptor [2] = target: T1, Asu-ACR-16 receptor; details: ref Abongwa et al., 2016; cited from earlier work

Molecule	Hill slope (nH) (Asu-ACR-16 receptor [1])	sensitivity of the Asu-ACR-16 receptor to the agonist (Asu-ACR-16 receptor [2])	other results
Cc1cncc(C2CCCN2C)c1 (racemic) [5-methylnicotine, rac-5-methylnicotine]	2.09 ± 0.14		effect at high concentration (response left out of the Hill fit) (Asu-ACR-16 receptor [1]): inhibitory effects at high concentrations
O=c1c(Br)ccc2n1C[C@@H]1CNC[C@H]2C1 [3-bromocytisine]		sensitive	
CN1CCCC1c1ccc(N)nc1.Cl.Cl (stereo not drawn) [6-AN, 5-(1-methyl-pyrrolidin-2-yl)-pyridin-2-ylamine dihydrochloride]	10.10 ± 0.15		agonist activity on Asu-ACR-16 (inward current) (Asu-ACR-16 receptor [1]; derivatives that elicited inward currents at 100 μM were classed as agonists): little agonist activity; Emax (Asu-ACR-16 receptor [1]): 6.29 ± 0.62%
CN1CCC[C@H]1c1cncc(Br)c1 [(S)-5-bromonicotine]	2.46 ± 0.21		
CN1CCC[C@H]1c1cccnc1 [(S)-nicotine, (−)-nicotine hydrogen tartrate salt]	3.39 ± 0.36	sensitive	
C#Cc1cncc([C@@H]2CCCN2C)c1 [(S)—SIB 1508Y]	0.94 ± 0.04		Emax (Asu-ACR-16 receptor [1]): 100 ± 4.36%
CC(=O)OCC[N+](C)(C)C [ACh, acetylcholine]	2.93 ± 0.13	sensitive	
C[N+]1(C)CCN(c2ccccc2)CC1.[I-] [DMPP, dimethyl-4-phenyllpiperazinium iodide]		sensitive	
O=c1cccc2n1C[C@@H]1CNC[C@H]2C1 [cytisine]		sensitive	
Clc1ccc(C2CC3CCC2N3)cn1 (stereo not drawn) [epibatidine]		sensitive	
(±)-nornicotine	3.25 ± 0.49		
anabasine [(S, R)-anabasine]			effect at high concentration (response left out of the Hill fit) (Asu-ACR-16 receptor [1]): inhibitory effect
